Here are results for one molecule from US6605305B2, “Plant drug for treatment of liver disease” (priority 2001, dated 2003).

For series [1], the system named is NADPH-cytochrome Creductase. In words: Hepatic microsomal monooxygenases: NADPH-cytochrome C reductase. Type of series: in vivo. The conditions noted are these: rat liver microsomes, treatment group. On the technique in general: Liver microsomes are vesicles of endoplasmic reticulum, rich in cytochrome P450 enzymes.
Series [2] concerns bovine aortic smooth muscle cell modified LDL. In words: Cell-modified LDL oxidation (MDA). Particulars: LDL + 100 μg SCS/ml, 24 hours, 37° C. Type of series: cell-based.
For a further series, the system named is Aminopyrine demethylase. In words: Hepatic microsomal monooxygenases: aminopyrine demethylase. Type of series: in vivo. The conditions noted are these: rat liver microsomes, treatment group.
The subject of the next series is Gastric cancer cells. In words: Effect of SCS on p^53 mutations of cancer cells (PCR-SSCP). The format is cell-based. The conditions noted are these: Gastric cancer cells treated by SCS.
A further series relates to rats. In words: Subacute toxicity, 30 days. The format is in vivo.
In series [3] the test system is Glutathione S-trasferase (GST). In words: Liver GST activity in CCl4-intoxicated mice. The format is in vivo. The protocol: (§1) Female Balb/c mice (22-24 g) were maintained at 20° C. and a 12 hours light/dark cycle. The food and water allowed adliboti. Mice were randomly assigned to groups of 20 individuals. Twenty-four hours after the last dosing, animals were administered an oral dose of CCl4 (1%, v/v, in olive oil) at 1.0 mmol/kg. In treatment group, mice were treated intragastrically with SCS at daily dose of 50 mg/kg for 4 days. Control animals were given the vehicle (i.e. olive oil, 1 mL/kg). Twenty-four hours after intoxication, heparinized blood samples were drawn from ether-anesthetized mice by cardiac puncture, and the animals were killed by cardiac excision thereafter.
The rats were starved overnight before decapitation. The livers were perfused in situ with ice-cold 1.15% KCl solution. Tissue homogenate was prepared by homogenizing 1 g of hepatic tissue sample in 10 mL ice-cold homogenizing buffer with two 10-secbursts of atissue disintegrator at 135,000 rpm. Hepatic mitochondrial fraction was prepared by differential centrifugation in isotonic buffer ([…], 0.1 mM EDTA, 5 mM Tris, pH 7.4).
Glutathione S-trasferase (GST) was determined. Total GST activity in the 105000 g supernatants of the liver homogenate was measured in 100 mM postassium-phosphate buffer (pH 6.5) containing 1 mM glutathione and 1 mM 1-chloro-2, 4-dinitrobenzene.

The next series has as its system Cytochrome P-450. The conditions noted are these: rat, in vivo.
For another series, the system named is RBL-5. In words: NK cell activity of mice (^51Cr release), RBL-5 target cells. Type of series: in vivo. The conditions noted are these: oral dose of 100 mg/kg.
In a further series the test system is c-myc RNA. In words: Inhibition of oncogene expression in ML-1 cells (northern blot), c-myc. Type of series: cell-based, Human. The protocol: Human myeloblastic leukemic cells (ML-1) were maintained in suspension culture in RPMI 1640 medium supplemented with 7.5% heat-inactivated FBS. Cells growth and viability were assayed by hemocytometer using trypan-blue dye exclusion.
RNA was isolated by the CsCl gradient modification. RNA pellets were washed twice by reprecipitation in ethanol and quantitated by absorbency at […]. RNA analyzed by electrophoresis of 15 μg of RNA through 1.2% agarose formaldehyde gels followed by northern blot transfer to nitrocellulose.
Single-standard uniformly labeled DNA probes were prepared. Probe of c-myc was a 1.7 Kb cla-Eco RI restriction fragment containing the 3′exon region of human c-myc and probe of c-myb was 1.0 Kb myb-specific Bam HI fragment. Probes for n-ras contained DNA fragments using a modification of the PCR technique. Probes for myb, myc and n-ras were isolated. The isolated fragments were labeled to high specific activity with [α^32P]-dCTP (3000 ci/mmol).
Prehybridization of the filter was performed. The hybridization mixer contained 50,000 cpm of probe. The probes were hybridized at 58° C. in 15 mM NaCl, […] sodium citrate for 3 hours. After hybridization, they were exposed to XAR-5 film. Oncogene expression was quantitated by densitometer scanning of the autoradiography.

The test system of the next series is DNA synthesis of liver. In words: Liver DNA synthesis ([^3H] thymidine incorporation) in CCl4-intoxicated mice. The format is in vivo. The conditions noted are these: SCS 50 mg/kg intragastrically daily for 4 days. The protocol:
as §1
[^3H] thymidine (10 μCi/100 g body weight) was injected intraperitoneally and mice were killed 2 hours after the infection. Mice were killed at 12, 24, 36, 48, 72 and 120 hours and their livers were removed.
DNA synthesis was determined by the incorporation of [^3H] thymidice into the acid-insoluble fraction. The liver was homogenized in 4 volumes of distilled water. Two ml of homogenate were added to an equal volume of 10% trichloroacetic acid (TCA) solution and centrifuged at 900 g for 10 minutes. The resultant pellet was washed with 5% TCA twice and suspended again in 2 ml of 5% TCA solution. The suspension was incubated at 90° C. for 20 minutes and centrifuged at 900 g for 10 minutes. One ml of the supernatant was put into a scintillation vial and 10 ml of a toluene-based scintillation fluid containing DPO (0.4%), POPOP (0.01%), and Triton X-100 (30%) as added. The radioactivity was counted in a Packard Tri-Carb Liquid scintillation counter. The DNA content of the supernatant was assayed by the method of using calf thymus DNA as the standard.
For orientation: Dividing cells build labelled thymidine or BrdU into new DNA.

In the next series the test system is Hepatoma. In words: DNA synthesis of cancer cells ([^3H]TdR incorporation), hepatoma. Type of series: in vivo, rats. The protocol:
The method of animal and liver was described previously. Ascitric hepatoma, S180-ν, the transplantable 3924 used. After treatment with SCS (100 mg/kg), rats were injected with [^3H]-TdR (10 μc/μmole). Two hours after injection the animals were decapitated and examined. Livers and tumors were rapidly removed and blotted on filter paper. Tumors were carefully dissected free of necrotic, hemorrhagic, and nontumorous material. Tissues were minced with sharp scissors and 2 gm. DNA was prepared from the tissues. The radioactivity of the DNA was determined by liquid scintillation counting.
The incorporation of thymidine into DNA ws expressed as cpm/mg of DNA or cpm/gm of tissue.

The next series deals with Benzpyrene hydroxylase. In words: Hepatic microsomal monooxygenases: benzpyrene hydroxylase. Type of series: in vivo. Particulars: rat liver microsomes, treatment group.
The mark [4] stands for this setting: intragastric route, 500 mg/kg daily, 30 consecutive days.
[5] abbreviates: rats, 500 mg/kg daily injected, 30 days.

Take `COc1cc2c(c(OC)c1OC)-c1c(cc(OC)c(OC)c1OC)C[C@](C)(O)[C@@H](C)C2` [SCS, Schisandrin]: in [1], the “NADPH-cytochrome Creductase” value was 202.5 ± 22 nmol/mg protein. In addition, the “MDA (nmol/mg protein, x ± s)” value in [2] is 2.80 ± 0.29 nmol/mg protein. Moreover, the Aminopyrine demethylase in the series with Aminopyrine demethylase was found to be 180.0 ± 20 nmol HCHO/mg protein. Also, the “Frequency of p^53 mutations (%)” value in the series with Gastric cancer cells is given as 10%. In addition, the “Behavior of the animal” value in the series on rats (setting [4]) is “remained normal”. Further, the “Liver and kidney function, histological picture of important organs” value in the series with rats (setting [4]) is “no abnormalities”. The “Consumption of water, food and body weights versus control” value in the series with rats (setting [5]) is given as “did not show any differences”. The “Depressive, excitatory or sleepiness symptoms” value in the series on rats (setting [5]) is listed as “no depressive, excitatory or sleepiness symptoms”. Besides, in the series on rats (setting [5]), the “Microscopic inspection of stomach, liver, spleen and kidneys and their relative weights” value is listed as “no alteration”. For the same molecule, the GST activity in series [3] (CCl4 + SCS, liver homogenate supernatant) is given as 2.60 ± 0.28 μmol/mg protein. Also, the “Inhibition of GST activity” value in series [3] (versus CCl4 control) turned out to be 55.5%. Moreover, the “Cytochrome P-450” value in the series on Cytochrome P-450 is reported as 2.80 ± 0.30 nmol/mg protein. The “% Specific lysis (mean ± SEM) RBL-5” value came out at 12.1 ± 1.2 % in the series on RBL-5 (effector/target 50:1) and 19.8 ± 2.0 % in the series with RBL-5 (effector/target 100:1). Further, the “Inhibition (%) c-myc RNA” value with c-myc RNA (SCS concentration 10 ng/ml) is reported as 70.5 ± 8.5%; in the series with c-myc RNA (SCS concentration 50 ng/ml), 70.8 ± 8.9%. The “DNA synthesis (cpm/mg DNA)” value stood at 6520 ± 678 cpm/mg DNA with DNA synthesis of liver (12 h), 12305 ± 1405 cpm/mg DNA in the series on DNA synthesis of liver (24 h), 8910 ± 920 cpm/mg DNA in the series with DNA synthesis of liver (48 h) and 9300 ± 940 cpm/mg DNA with DNA synthesis of liver (72 h). Moreover, in the series with Hepatoma (Hepatoma T versus C), the “Tissue inhibition rate (%)” value is on record as 56.4%. In addition, the “[^3H]TdR into DNA × 10^−3 cm/mg” value with Hepatoma (Hepatoma T, SCS 100 mg/kg) was 8.8 ± 0.80 × 10^−3 cm/mg. The molecule also displayed a Benzpyrene hydroxylase in the series with Benzpyrene hydroxylase of 51.8 ± 6.5 nmol/mg protein.
